Columns and labels:
[1] = Pharmacokinetics of FOLFIRI components with and without veliparib (relative bioavailability); settings: for 90% CIs for the relative bioavailability (Cmax and AUCt): presence (cycle 1 day 15) vs absence (cycle 1 day 1) of veliparib; for Cmax: human, plasma, intravenous, central value
Description: Treatment-emergent adverse events (TEAEs) were assessed from the time of study drug administration until 30 days following discontinuation of study drug. TEAEs were assessed according to the National Cancer Institute Common Terminology Criteria for Adverse Events version 4.0. In dose-escalation cohorts, blood samples were collected on day 15 of cycle 1 for veliparib PK, and on days 1 and 15 of cycle 1 for PK assessment of the FOLFIRI components irinotecan, SN-38, folinic acid (leucovorin), and 5-FU. Exploratory efficacy end points included objective response rate (ORR), time to disease progression (TTP), duration of overall response (DOR), and ECOG performance status. Objective response rate included confirmed complete response (CR) and partial response (PR). Objective response rate evaluation was based on Response Evaluation Criteria in Solid Tumours version 1.1. Objective response rate was calculated for all patients with one or more measurable lesions at baseline. Time to disease progression was defined as the number of days from the date the patient started study drug to the date of the patient’s disease progression. Duration of overall response was defined as the number of days from the day criteria were met for CR or PR (whichever was recorded first) to the date that PD was objectively documented. If a patient was still responding, the patient’s data were censored at the date of the last study visit at which a tumour assessment was performed. Analyses of change and/or percentage change from baseline for tumour size were performed for each scheduled post-baseline visit and for the final visit. ECOG performance status was assessed at all visits, with descriptive statistics summarised for each assessment. In addition, a mean change from baseline to each assessment time was summarised.
The sample size was based on clinical justification. No specific statistical hypothesis tests were planned, with descriptive statistics used for the analysis of safety, PK, and tumour response data. The study population for all safety and preliminary efficacy analyses included patients who received one or more doses of study medication. Data from parts 1–3 of the dose-escalation cohort were combined for assessment of the effect of veliparib on the PK of irinotecan, SN-38, and folinic acid. Linear mixed effects models were performed on natural logarithmically transformed maximum plasma concentration (Cmax) and area under the plasma or serum concentration-time curve (AUC) to compare exposure of irinotecan, SN-38, and folinic acid with and without the administration of veliparib. Point estimates and the corresponding 90% confidence intervals (CIs) of the ratio of central values with and without veliparib administration were calculated.

[2] = system: patients with advanced solid tumours; settings: human, in vivo
Description: This phase 1 open-label, multicentre, dose-escalation, and safety expansion study evaluated veliparib in combination with bimonthly FOLFIRI in patients with advanced solid tumours. The primary objectives were to determine the maximum tolerated dose (MTD) and establish the recommended phase 2 dose (RP2D) of the combination therapy. Secondary objectives were to assess the safety and tolerability, PK profile, and exploratory efficacy of the combination for each of the FOLFIRI regimens. Patients received veliparib and bimonthly FOLFIRI in 28-day cycles. Veliparib was administered on days 15–19 in cycle 1 and on days 1–5 and 15–19 in subsequent cycles (Fig. 1). Patients with stable disease or better status could continue veliparib and bimonthly FOLFIRI at the investigator’s discretion until progressive disease (PD), unacceptable toxicity, or FOLFIRI discontinuation. The trial was registered with the ClinicalTrials.gov registry (NCT01123876) and was approved by appropriate independent ethics committees/institutional review boards prior to initiation. The study was performed in accordance with the 1964 Declaration of Helsinki and its later amendments. Written informed consent was obtained from all patients before study enrollment.
Dose escalation occurred in three parts to evaluate the MTD/RP2D of three different bimonthly FOLFIRI regimens in combination with veliparib (Fig. 1). A minimum of three patients per dose level were included for dose-toxicity modeling. In part 1, dose escalation began with veliparib twice daily (BID) on days 15–19 of cycle 1 (to allow the determination of single-agent PK for irinotecan, the active metabolite of irinotecan (SN-38), folinic acid, and 5-FU on cycle 1 day 1). In parts 2 and 3, dose escalation began with veliparib BID on day 15 of cycle 1. The differences in the dosing schedules of parts 1, 2, and 3 relate to dosing of irinotecan and 5-FU, and are detailed in Fig. 1. In all parts, veliparib continued to be administered on days 1–5 and 15–19 of each subsequent 28-day cycle. […]

[3] = system: platinum-sensitive relapsed ovarian cancer and a BRCA1/2 mutation; parameters: method as in PMID 28754483; settings: maintenance treatment, vs placebo; cited from earlier work
[4] = FOLFIRI + veliparib, cycle 1 day 15

SMILES	AUCt, central value, test [1, 4]	Cmax, central value, test [1, 4]	AUCt, central value, reference ([1]; FOLFIRI alone, cycle 1 day 1)	Cmax, central value, reference ([1]; FOLFIRI alone, cycle 1 day 1)	90% CIs for the relative bioavailability (Cmax and AUCt) [1]	further results
O=c1[nH]cc(F)c(=O)[nH]1 [5-FU, 5-fluorouracil]						Median ratio of 5-FU concentrations, cycle 1 day 15 to cycle 1 day 1 ([1]; 2 h after the start of infusion): 1.03; Median ratio of 5-FU concentrations, cycle 1 day 15 to cycle 1 day 1 ([1]; 24 h after the start of infusion): 0.95; Tolerability of 400 mg/m^2 bolus 5-FU dose [2]: not tolerated
Nc1nc2c(c(=O)[nH]1)N(C=O)[C@H](CNc1ccc(C(=O)N[C@@H](CCC(=O)O)C(=O)O)cc1)CN2 [(R)-Leucovorin, dextroleucovorin]	172200 ng·h/mL	39860 ng/mL	180400 ng·h/mL	41870 ng/mL	within the pre-established boundaries of 0.80 to 1.25	
Nc1nc(=O)c2c([nH]1)NC[C@H](CNc1ccc(C(=O)N[C@@H](CCC(=O)O)C(=O)O)cc1)N2C=O [(S)-Leucovorin, levoleucovorin]	28470 ng·h/mL	13270 ng/mL	29360 ng·h/mL	14220 ng/mL	within the pre-established boundaries of 0.80 to 1.25	
CCc1c2c(nc3ccc(OC(=O)N4CCC(N5CCCCC5)CC4)cc13)-c1cc3c(c(=O)n1C2)COC(=O)[C@]3(O)CC [Irinotecan, irinotecan]					within the pre-established boundaries of 0.80 to 1.25	AUC0–24, central value, reference ([1]; FOLFIRI alone, cycle 1 day 1): 10620 ng·h/mL; Cmax ([1]; reference, FOLFIRI alone, cycle 1 day 1): 1780 ng/mL; Cmax ([1]; test, FOLFIRI + veliparib, cycle 1 day 15): 1790 ng/mL
CCc1c2c(nc3ccc(O)cc13)-c1cc3c(c(=O)n1C2)COC(=O)[C@]3(O)CC [SN-38]	157.8 ng·h/mL	17.65 ng/mL	157.9 ng·h/mL	18.31 ng/mL	within the pre-established boundaries of 0.80 to 1.25	
O=C(c1cc(Cc2n[nH]c(=O)c3ccccc23)ccc1F)N1CCN(C(=O)C2CC2)CC1 [olaparib]						Median PFS [3]: 19.1 months

Reference: publication PMC5933261, “A phase 1 dose-escalation study of veliparib with bimonthly FOLFIRI in patients with advanced solid tumours” (British Journal of Cancer, 2018)
